Structures can show the parent of a compound that is named as a salt. Where two headings read alike, the source gives them in different places.

This assay deals with T1, lyophilized bovine thrombin standard substance purified from bovine blood (Bos taurus, UniProt P00735).
T1 construct: lyophilized bovine thrombin standard substance purified from bovine blood; from tissue; host or cells: bovine blood
The experiment in a line: Test for antithrombin activity (chromogenic substrate S2238). It is filed as biochemical. An excerpt: Wherein ΔAs represents the rate of change in inhibited absorbance value, and ΔAc represents the rate of change in uninhibited absorbance values.
Wherein h represents Hill coefficient.

[1] abbreviates: 0.15 U/ml bovine thrombin, incubation for 15 minutes, substrate S2238 (0.075 μM), absorbance at 405 nm during 4 minutes, room temperature, read-out: IC50.

In the case of `CC(C)CC(NC(=O)c1ccccc1)C(=O)N1CCC[C@H]1C(=O)NCc1ccc(C(=N)N)cc1` (mixture of isomers) [Example 6, N-benzoyl-D,L-leucyl-L-prolyl-[(4-amidinophenyl)methyl]amide acetate], the IC50 under setting [1] came to 0.154 µM.

For `CC[C@H](C)[C@H](NC(=O)c1ccccc1)C(=O)N1CCC[C@H]1C(=O)NCc1ccc(C(=N)N)cc1` (mixture of isomers) [Example 12, N-benzoyl-D,L-isoleucyl-L-prolyl-[(4-amidinophenyl)methyl]amide acetate], the IC50 under setting [1] was 0.561 µM.

Compound `CC(C)CC(NS(=O)(=O)c1ccccc1)C(=O)N1CCC[C@H]1C(=O)NCc1ccc(C(=N)N)cc1` (stereo partly drawn) [Example 2, N-benzenesulfonyl-D,L-leucyl-L-prolyl-[(4-amidinophenyl)methyl]amide acetate] had an IC50 of 0.115 µM.

For the compound `CC(C)C[C@@H](NS(=O)(=O)c1ccccc1)C(=O)N1CCC[C@H]1C(=O)NCc1ccc(C(=N)NC(=O)OCc2ccccc2)cc1` [Example 18], the IC50 under setting [1] is 0.03 µM.

Take `CC(C)C[C@@H](NS(=O)(=O)c1ccccc1)C(=O)N1CCC[C@H]1C(=O)NCc1ccc(C(=N)N)cc1` [Example 19, N-benzenesulfony-D-leucyl-L-prolyl-[(4-amidinophenyl)methyl]amide hydrochloride]: the IC50 under setting [1] was 0.012 µM.

Consider `CC(C)C[C@@H](NS(=O)(=O)Cc1ccccc1)C(=O)N1CCC[C@H]1C(=O)NCc1ccc(C(=N)NC(=O)OCc2ccccc2)cc1` [Example 20], for which, under setting [1], the IC50 stood at 0.246 µM.

The compound `CC(C)C[C@@H](NS(=O)(=O)Cc1ccccc1)C(=O)N1CCC[C@H]1C(=O)NCc1ccc(C(=N)N)cc1` [Example 21, N-benzylsulfony-D-leucyl-L-prolyl-[(4-amidinophenyl)methyl]amide hydrochloride] had a 50% inhibitory concentration (IC50) of 0.17 µM.

As for `CC(C)C[C@@H](NC(=O)c1ccccc1)C(=O)N1CCC[C@H]1C(=O)NCc1ccc(C(=N)N)cc1` [Example 22, N-benzoyl-D-leucyl-L-prolyl-[(4-amidinophenyl)methyl]amide hydrochloride], under setting [1], the IC50 worked out at 0.055 µM.

In the case of `CC(C)C[C@@H](NC(=O)Cc1ccccc1)C(=O)N1CCC[C@H]1C(=O)NCc1ccc(C(=N)N)cc1` [Example 23, N-phenylacetyl-D-leucyl-L-prolyl-[(4-amidinophenyl)methyl]amide hydrochloride], the IC50 under setting [1] stood at 0.472 µM.

Regarding `CC(C)C[C@@H](NCC(=O)O)C(=O)N1CCC[C@H]1C(=O)NCc1ccc(C(=N)N)cc1` [Example 24, N-carboxylmethyl-D-leucyl-L-prolyl-[(4-amidinophenyl)methyl]amide hydrochloride], the IC50 under setting [1] was 0.561 µM.

`N=C(N)c1ccc(CNC(=O)[C@@H]2CCN2C(=O)[C@H](NCC(=O)O)C2CCCCC2)cc1` [melagatran, reference compound] had a concentration for half-maximal inhibition (IC50) of 0.069 µM.

In the case of “N-benzenesulfonyl-D-leucyl-L-prolyl-[1-(aminoiminomethyl)-pyrrol-3-yl]methyl amide hydrochloride [Example 27]”, the IC50 under setting [1] came out at 0.008 µM.

As to “N-benzylsulfonyl-D,L-leucyl-L-prolyl-{[4-(N′-hydroxyl) amidinophenyl]methyl}amide acetate [Example 4]”, the IC50 under setting [1] stood at 0.047 µM.

A word on the IC50: it is the point on the concentration scale where inhibition reaches its midpoint.
